The compounds below were run on soybean (GLYMX) (assay: Selectivity test, PPI, warm season crop). Details: Glycine max; PPI application, 10 g/ha; read-out: Percent inhibition GLYMX.
Assay type: in vivo, Glycine max
Procedure: (§1) A pre-prepared topsoil mixture (described above) was placed in a pot and compacted to a depth of 1.0 to 1.25 cm from the top of the pot. Seeds of each of several monocotyledonous and dicotyledonous annual plant species were placed on top of the soil. A sufficient quantity of soil to cover the seeds and level fill the pot was weighed into an open container. A known amount of the test compound was dissolved or suspended in an organic solvent and applied by spraying to this cover soil. The cover soil was thoroughly mixed to distribute the test compound throughout the cover soil, and was then applied as a cover layer over the seeds. Untreated soil was used as a cover layer for control pots. After treatment the plants were placed in a greenhouse where they received 0.64 cm of overhead irrigation. All subsequent watering consisted of a light overhead mist and/or subirrigation as needed for germination and growth. Tables 9 and 10 below relate to warm season plant species which were placed after pre-emergence treatment in a greenhouse with a 30/21° C. day/night temperature regime. Tables 11 and 12 below relates to cool season plant species placed after pre-emergence treatment in a greenhouse or growth chamber with an 18/13° C. day/night temperature regime. Only the compounds of Examples 1, 6, 8, 11, 13 and 15-20 were included in PPI tests.
(§2) Approximately 14 days after planting and treating, the plants were observed and herbicidal efficacy recorded as percent inhibition by comparison with untreated plants.
(§3) Additional pre-emergence and PPI tests were conducted by the procedures described above, on warm and cool season weed species in the presence of crop species, to assess herbicidal selectivity. Crop species included in warm season tests were corn (Zea mays, ZEAMX), rice (Oryza sativa, ORYSA) and soybean (Glycine max, GLYMX). Crop species included in cool season tests were wheat (Triticum aestivum, TRZAW), barley (Hordeunm vulgare, HORVX) and oilseed rape (Brassica napus, BRSNS).
(§4) Tables 15 and 16 relate to pre-emergence and PPI tests respectively on warm season species. Table 17 relates to pre-emergence tests on cool season species.
`CCN(CC)C(=O)n1cnc(S(=O)(=O)C(F)F)n1` [Example 15, 1-(N,N-diethylcarbamoyl)-3-(difluoromethylsulfonyl)-1,2,4-triazole] was tested, and the inhibition at 10 g/ha was 0%.

Same assay, conditions: Glycine max; PPI application, 30 g/ha; read-out: Percent inhibition GLYMX
`CCN(CC)C(=O)n1cnc(S(=O)(=O)C(F)F)n1` [Example 15, 1-(N,N-diethylcarbamoyl)-3-(difluoromethylsulfonyl)-1,2,4-triazole] showed an inhibition at 30 g/ha of 0%.

Same assay, conditions: Glycine max; PPI application, 100 g/ha; read-out: Percent inhibition GLYMX
In the case of `CCN(CC)C(=O)n1cnc(S(=O)(=O)C(F)F)n1` [Example 15, 1-(N,N-diethylcarbamoyl)-3-(difluoromethylsulfonyl)-1,2,4-triazole], the inhibition at 100 g/ha is reported as 0%.

Same assay, conditions: Glycine max; PPI application, 300 g/ha; read-out: Percent inhibition GLYMX
In the case of `CCN(CC)C(=O)n1cnc(S(=O)(=O)C(F)F)n1` [Example 15, 1-(N,N-diethylcarbamoyl)-3-(difluoromethylsulfonyl)-1,2,4-triazole], the inhibition at 300 g/ha is reported as 15%.

Same assay, conditions: Glycine max; PPI application, 900 g/ha; read-out: Percent inhibition GLYMX
Compound `CCN(CC)C(=O)n1cnc(S(=O)(=O)C(F)F)n1` [Example 15, 1-(N,N-diethylcarbamoyl)-3-(difluoromethylsulfonyl)-1,2,4-triazole] has an inhibition at 900 g/ha of 65%.

Same assay, conditions: PPI application, 10 g/ha
With `CCN(CC)C(=O)n1cnc(S(=O)(=O)C(F)(F)SCc2ccccc2)n1` [Example 10] the “Percent inhibition GLYMX” value was 0%.

Same assay, conditions: PPI application, 30 g/ha
In the case of `CCN(CC)C(=O)n1cnc(S(=O)(=O)C(F)(F)SCc2ccccc2)n1` [Example 10], the “Percent inhibition GLYMX” value is reported as 0%.

Same assay, conditions: PPI application, 100 g/ha
`CCN(CC)C(=O)n1cnc(S(=O)(=O)C(F)(F)SCc2ccccc2)n1` [Example 10] was tested, and the “Percent inhibition GLYMX” value was 0%.

Same assay, conditions: PPI application, 300 g/ha
`CCN(CC)C(=O)n1cnc(S(=O)(=O)C(F)(F)SCc2ccccc2)n1` [Example 10] was tested, and the “Percent inhibition GLYMX” value was 10%.

Same assay, conditions: PPI application, 900 g/ha
With `CCN(CC)C(=O)n1cnc(S(=O)(=O)C(F)(F)SCc2ccccc2)n1` [Example 10] the “Percent inhibition GLYMX” value was 70%.

What follows are compounds tested on SORHA (johnsongrass (seedling)) (assay: Pre-emergence herbicidal activity, warm season). Details: GR80 = lowest tested rate (300, 100, 30, 10 g/ha) with 80% or greater inhibition; approx. 14 days after treating; 30/21° C.
Assay type: in vivo, Sorghum halepense
How it was run: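 GR80 values derive from percent inhibition relative to untreated plants, read roughly 14 days after sowing and pre-emergence soil-surface treatment (compound in 50:50 acetone/water; rates typically 10, 30, 100, 300 g/ha). Warm-season weeds grew at 30/21° C day/night, cool-season ones at 18/13° C; an asterisk marks activity without reaching 80% at the highest rate.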
For `CCN(CC)C(=O)n1cnc(S(=O)(=O)C(F)(F)SCc2ccccc2)n1` [Example 10], the “Pre-emergence activity (GR80) SORHA” value was 100 g/ha. With `CCN(CC)C(=O)n1cnc(S(=O)(=O)C(F)F)n1` [Example 15, 1-(N,N-diethylcarbamoyl)-3-(difluoromethylsulfonyl)-1,2,4-triazole] the “Pre-emergence activity (GR80) SORHA” value was 100 g/ha.

Same assay, conditions: Sorghum halepense; pre-emergence application, 10 g/ha; read-out: Percent inhibition, weed SORHA
In the case of `CCN(CC)C(=O)n1cnc(S(=O)(=O)C(F)F)n1` [Example 15, 1-(N,N-diethylcarbamoyl)-3-(difluoromethylsulfonyl)-1,2,4-triazole], the inhibition at 10 g/ha is reported as 0%.

Same assay, conditions: Sorghum halepense; pre-emergence application, 30 g/ha; read-out: Percent inhibition, weed SORHA
`CCN(CC)C(=O)n1cnc(S(=O)(=O)C(F)F)n1` [Example 15, 1-(N,N-diethylcarbamoyl)-3-(difluoromethylsulfonyl)-1,2,4-triazole] showed an inhibition at 30 g/ha of 0%.

Same assay, conditions: Sorghum halepense; pre-emergence application, 100 g/ha; read-out: Percent inhibition, weed SORHA
`CCN(CC)C(=O)n1cnc(S(=O)(=O)C(F)F)n1` [Example 15, 1-(N,N-diethylcarbamoyl)-3-(difluoromethylsulfonyl)-1,2,4-triazole] was tested, and the inhibition at 100 g/ha was 30%.

Same assay, conditions: Sorghum halepense; pre-emergence application, 300 g/ha; read-out: Percent inhibition, weed SORHA
For `CCN(CC)C(=O)n1cnc(S(=O)(=O)C(F)F)n1` [Example 15, 1-(N,N-diethylcarbamoyl)-3-(difluoromethylsulfonyl)-1,2,4-triazole], the inhibition at 300 g/ha was 95%.

Same assay, conditions: Sorghum halepense; pre-emergence application, 900 g/ha; read-out: Percent inhibition, weed SORHA
`CCN(CC)C(=O)n1cnc(S(=O)(=O)C(F)F)n1` [Example 15, 1-(N,N-diethylcarbamoyl)-3-(difluoromethylsulfonyl)-1,2,4-triazole] was tested, and the inhibition at 900 g/ha was 100%.

What follows are compounds tested on ALOMY (blackgrass) (assay: Pre-emergence herbicidal activity, cool season). Details: GR80 = lowest tested rate (300, 100, 30, 10 g/ha) with 80% or greater inhibition; approx. 14 days after treating; 18/13° C.
Assay type: in vivo, Alopecurus myosuroides
How it was run: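 Seeds were sown in sterilized, fertilized topsoil, covered, and the soil surface was sprayed with compound in 50:50 acetone/water at 300, 100, 30 and 10 g/ha. Pots were held at 30/21 °C day/night (PANMI, DIGSA) or 18/13 °C (ALOMY, POLCO). GR80 came from percent inhibition versus untreated plants at about 14 days.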
`CCN(CC)C(=O)n1cnc(S(=O)(=O)C(F)(F)SCc2ccccc2)n1` [Example 10] was tested, and the “Pre-emergence activity (GR80) ALOMY” value was 300 g/ha.

These compounds were tested on AVEFA (wild oat) (assay: Pre-plant incorporated (PPI) herbicidal activity, cool season). Details: pre-plant incorporated; lowest tested rate with 80% or greater inhibition; about 14 days.
Assay type: in vivo, Avena fatua
Procedure: In another set of tests, the pre-plant incorporated (PPI) activity of compounds of this invention was evaluated on the same species as for the pre-emergence tests described above. In the PPI tests the following procedure, designed to simulate PPI application, was used.
as §1, §2
`CCN(CC)C(=O)n1cnc(S(=O)(=O)C(F)F)n1` [Example 15, 1-(N,N-diethylcarbamoyl)-3-(difluoromethylsulfonyl)-1,2,4-triazole] was tested, and the “PPI activity GR80, AVEFA” value was 300 g/ha.

Same assay, conditions: weed, PPI application, 10 g/ha
For `CCN(CC)C(=O)n1cnc(S(=O)(=O)C(F)(F)SCc2ccccc2)n1` [Example 10], the “Percent inhibition AVEFA” value was 0%.

Same assay, conditions: weed, PPI application, 30 g/ha
In the case of `CCN(CC)C(=O)n1cnc(S(=O)(=O)C(F)(F)SCc2ccccc2)n1` [Example 10], the “Percent inhibition AVEFA” value is reported as 0%.

Same assay, conditions: weed, PPI application, 100 g/ha
With `CCN(CC)C(=O)n1cnc(S(=O)(=O)C(F)(F)SCc2ccccc2)n1` [Example 10] the “Percent inhibition AVEFA” value was 20%.

Same assay, conditions: weed, PPI application, 300 g/ha
In the case of `CCN(CC)C(=O)n1cnc(S(=O)(=O)C(F)(F)SCc2ccccc2)n1` [Example 10], the “Percent inhibition AVEFA” value is reported as 40%.

Same assay, conditions: weed, PPI application, 900 g/ha
For `CCN(CC)C(=O)n1cnc(S(=O)(=O)C(F)(F)SCc2ccccc2)n1` [Example 10], the “Percent inhibition AVEFA” value was 95%.

These compounds were tested on barley (HORVX) (assay: Selectivity test, PPI, cool season crop). Details: PPI application, 10 g/ha.
Assay type: in vivo, Hordeunm vulgare
Procedure: as §1, §2, §3, §4
In the case of `CCN(CC)C(=O)n1cnc(S(=O)(=O)C(F)(F)SCc2ccccc2)n1` [Example 10], the “Percent inhibition HORVX” value is reported as 0%.

Same assay, conditions: PPI application, 30 g/ha
With `CCN(CC)C(=O)n1cnc(S(=O)(=O)C(F)(F)SCc2ccccc2)n1` [Example 10] the “Percent inhibition HORVX” value was 0%.

Same assay, conditions: PPI application, 100 g/ha
For `CCN(CC)C(=O)n1cnc(S(=O)(=O)C(F)(F)SCc2ccccc2)n1` [Example 10], the “Percent inhibition HORVX” value was 0%.

Same assay, conditions: PPI application, 300 g/ha
With `CCN(CC)C(=O)n1cnc(S(=O)(=O)C(F)(F)SCc2ccccc2)n1` [Example 10] the “Percent inhibition HORVX” value was 0%.

Same assay, conditions: PPI application, 900 g/ha
`CCN(CC)C(=O)n1cnc(S(=O)(=O)C(F)(F)SCc2ccccc2)n1` [Example 10] was tested, and the “Percent inhibition HORVX” value was 20%.

The compounds below were run on LOLMG (annual ryegrass) (assay: Post-emergence herbicidal activity, cool season). Details: abraded plants sprayed at 300, 100, 30 and 10 g/ha; about 14 days after treatment.
Assay type: in vivo, Lolium multiflorum
Procedure: In another set of tests, the post-emergence activity of compounds of this invention was evaluated on the cool season species listed above. The following procedure was used.
A pre-prepared topsoil mixture (described above) was placed in a pot and compacted to a depth of 1.0 to 1.25 cm from the top of the pot. Seeds of each of several monocotyledonous and dicotyledonous annual plant species were placed on top of the soil. The seeds were covered with a mixture of 50% topsoil and 50% Rediearth™ in sufficient quantity to level-fill the pots. The pots were then placed on a greenhouse bench and subirrigated as needed.
When plants growing from the seeds had emerged and reached a suitable growth stage for post-emergence treatment, typically 9 to 14 days after planting, above-ground parts of the plants were subjected to a pre-treatment involving abrasion to create greater opportunity for foliar uptake of subsequently applied compounds. Abrasion was performed using garnet 200w particles applied with a Sears Craftsman hand-held sandblaster operated at approximately 850 kPa (50 psig) pressure.
A known amount of each test compound dissolved or suspended in an appropriate organic solvent was diluted with a 50:50 mix of acetone and water and applied to the plants by spraying with a standard spray nozzle in a spray volume of […] at a spray pressure of 511 kPa (30 psig). Only the compounds of Examples 1, 8-15 and 17-22 were included in post-emergence tests. Application rates for these compounds were 300, 100, 30 and 10 g/ha. Control plants were abraded but not sprayed.
After treatment the plants were placed in a greenhouse with an 18/13° C. day/night temperature regime and were subsequently watered as needed for growth. Approximately 14 days after treatment, the plants were observed and herbicidal efficacy recorded as percent inhibition by comparison with control plants. GR80 values were assigned for each compound as described above for the pre-emergence tests.
`CCN(CC)C(=O)n1cnc(S(=O)(=O)C(F)(F)SCc2ccccc2)n1` [Example 10] was tested, and the “Post-emergence activity GR80, LOLMG” value was “[empty]”. For `CCN(CC)C(=O)n1cnc(S(=O)(=O)C(F)F)n1` [Example 15, 1-(N,N-diethylcarbamoyl)-3-(difluoromethylsulfonyl)-1,2,4-triazole], the “Post-emergence activity GR80, LOLMG” value was “[empty]”.
